A short description of assay [1]: Binding affinity to poly(dG-dC).poly(dG-dC) DNA (unknown origin) in CP buffer at pH 7.0 at 3 to 24 uM by CD spectroscopy.
Assay [2] relates to DNA. Put plainly: Binding affinity to calf thymus DNA in CP buffer at pH 7.0 at 3 to 24 uM by CD spectroscopy. The format is nucleic-acid assay. Particulars: Bos taurus.
Assay [3] in a line: Binding affinity to duplex DNA (unknown origin) assessed as change in melting temperature.
A short description of assay [4]: Binding affinity to poly(dA-dT).poly(dA-dT) DNA (unknown origin) in CP buffer at pH 7.0 at 3 to 24 uM by CD spectroscopy.

The source made the active and inactive calls. No cut-off for these calls is given here.

This note sets out measurements from ChEMBL document CHEMBL3132805, “Synthesis of new 13-diphenylalkyl analogues of berberine and elucidation of their base pair specificity and energetics of DNA binding” (Medchemcomm, 2014).

A word on the ΔTm: it is the change in melting temperature against a reference sample. Take `COc1ccc2c(CCC(c3ccccc3)c3ccccc3)c3[n+](cc2c1OC)CCc1cc2c(cc1-3)OCO2`: the result in assay [1], in assay [2] and in assay [4] was Active. For the same molecule, the ΔTm in assay [3] amounted to 16 °C.

With `COc1ccc2c(CCCC(c3ccccc3)c3ccccc3)c3[n+](cc2c1OC)CCc1cc2c(cc1-3)OCO2`, the result in assay [1], in assay [2] and in assay [4] was Active. Besides, the ΔTm in assay [3] amounted to 19 °C.

As for `COc1ccc2c(CCCCCC(c3ccccc3)c3ccccc3)c3[n+](cc2c1OC)CCc1cc2c(cc1-3)OCO2`, the result in assay [1], in assay [2] and in assay [4] was Active. Also, in assay [3], the shift in melting temperature (ΔTm) was 16.6 °C.

With `COc1ccc2c(CCCCC(c3ccccc3)c3ccccc3)c3[n+](cc2c1OC)CCc1cc2c(cc1-3)OCO2`, the result in assay [1], in assay [2] and in assay [4] was Active. The ΔTm in assay [3] stood at 17 °C.

For `COc1ccc2c(C(c3ccccc3)c3ccccc3)c3[n+](cc2c1OC)CCc1cc2c(cc1-3)OCO2`, the result in assay [1], in assay [2] and in assay [4] was Active. Besides, in assay [3], the ΔTm came out at 6 °C.

On to `COc1ccc2c(CC(c3ccccc3)c3ccccc3)c3[n+](cc2c1OC)CCc1cc2c(cc1-3)OCO2`, for which the outcome in assay [1], in assay [2] and in assay [4] was Active. In addition, the shift in melting temperature (ΔTm) in assay [3] is 7 °C.

As to `COc1ccc2cc3[n+](cc2c1OC)CCc1cc2c(cc1-3)OCO2`, the ΔTm in assay [3] was 13 °C.
